In ChEMBL document CHEMBL4219139, “Enantiomeric trans β-aryl-δ-iodo-γ-lactones derived from 2,5-dimethylbenzaldehyde induce apoptosis in canine lymphoma cell lines by downregulation of anti-apoptotic Bcl-2 family members Bcl-xL and Bcl-2” (2018):
Calls of active or inactive are those of the source. The rule behind the calls is not given here.

Legend:
[1] = system: Jurkat; test: Induction of apoptosis in human Jurkat cells assessed as downregulation of Bcl-2 expression at 25 to 50 ug/ml after 24 hrs by Western blot analysis; assay type: functional, cell-based
[2] = organism: Canis lupus familiaris; test: Induction of apoptosis in canine GL1 cells at 50 ug/ml after 24 hrs by Annexin V/FITC staining based FACS analysis; assay type: functional, cell-based
[3] = system: CLB70; test: Induction of apoptosis in canine CLB70 cells at 50 ug/ml after 24 hrs by Annexin V/FITC staining based FACS analysis; assay type: functional, cell-based; conditions: Canis lupus familiaris
[4] = system: CLBL-1; test: Induction of apoptosis in canine CLBL1 cells preincubated with Z-VAD-fmk pan-caspase inhibitor assessed as activation of caspase-3/7 at 50 ug/ml after 24 hrs by flow cytometry; assay type: functional, cell-based; conditions: Canis lupus familiaris
[5] = system: CLBL-1; test: Induction of apoptosis in canine CLBL1 cells assessed as downregulation of Bcl-xl expression at 25 to 50 ug/ml after 24 hrs by Western blot analysis; assay type: functional, cell-based; conditions: Canis lupus familiaris
[6] = system: CLBL-1; test: Cytotoxic activity against canine CLBL1 cells assessed as cell death after 24 hrs by propidium iodide staining-based FACS analysis; assay type: functional; conditions: Canis lupus familiaris
[7] = organism: Canis lupus familiaris; test: Cytotoxic activity against canine GL1 cells assessed as cell death after 24 hrs by propidium iodide staining-based FACS analysis; assay type: functional
[8] = system: Jurkat; test: Induction of apoptosis in human Jurkat cells assessed as activation of caspase-3/7 at 50 ug/ml after 24 hrs by flow cytometry; assay type: functional
[9] = organism: Canis lupus familiaris; test: Induction of apoptosis in canine GL1 cells assessed as downregulation of Bcl-2 expression at 25 to 50 ug/ml after 24 hrs by Western blot analysis; assay type: functional, cell-based
[10] = organism: Canis lupus familiaris; test: Induction of apoptosis in canine GL1 cells assessed as downregulation of Bcl-xl expression at 25 to 50 ug/ml after 24 hrs by Western blot analysis; assay type: functional, cell-based
[11] = system: CLBL-1; test: Induction of apoptosis in canine CLBL1 cells assessed as cleavage of Bid at 25 to 50 ug/ml after 24 hrs by Western blot analysis; assay type: functional, cell-based; conditions: Canis lupus familiaris
[12] = organism: Canis lupus familiaris; test: Induction of apoptosis in canine GL1 cells preincubated with Z-VAD-fmk pan-caspase inhibitor assessed as activation of caspase-3/7 at 50 ug/ml after 24 hrs by flow cytometry; assay type: functional, cell-based
[13] = system: CLB70; test: Induction of apoptosis in canine CLB70 cells assessed as cleavage of PARP1 at 25 to 50 ug/ml after 24 hrs by Western blot analysis; assay type: functional, cell-based; conditions: Canis lupus familiaris
[14] = system: CLBL-1; test: Cytotoxic activity against canine CLBL1 cells assessed as cell death at 50 ug/ml after 24 hrs by propidium iodide staining-based FACS analysis; assay type: functional, Canis lupus familiaris
[15] = system: Jurkat; test: Induction of apoptosis in human Jurkat cells preincubated with Z-VAD-fmk pan-caspase inhibitor assessed as activation of caspase-3/7 at 50 ug/ml after 24 hrs by flow cytometry; assay type: functional, cell-based
[16] = system: CLB70; test: Induction of apoptosis in canine CLB70 cells preincubated with Z-VAD-fmk pan-caspase inhibitor assessed as activation of caspase-3/7 at 50 ug/ml after 24 hrs by flow cytometry; assay type: functional, cell-based; conditions: Canis lupus familiaris
[17] = system: Jurkat; test: Induction of apoptosis in human Jurkat cells assessed as downregulation of Bcl-xl expression at 25 to 50 ug/ml after 24 hrs by Western blot analysis; assay type: functional, cell-based
[18] = system: CLB70; test: Induction of apoptosis in canine CLB70 cells assessed as downregulation of Bcl-xl expression at 25 to 50 ug/ml after 24 hrs by Western blot analysis; assay type: functional, cell-based; conditions: Canis lupus familiaris
[19] = Cytotoxic activity against canine GL1 cells assessed as cell death at 50 ug/ml after 24 hrs by propidium iodide staining-based FACS analysis; assay type: functional, Canis lupus familiaris
[20] = system: Jurkat; test: Cytotoxic activity against human Jurkat cells assessed as cell death after 24 hrs by propidium iodide staining-based FACS analysis; assay type: functional
[21] = system: CLBL-1; test: Induction of apoptosis in canine CLBL1 cells at 50 ug/ml after 24 hrs by Annexin V/FITC staining based FACS analysis; assay type: functional, cell-based; conditions: Canis lupus familiaris
[22] = system: CLBL-1; test: Induction of apoptosis in canine CLBL1 cells assessed as activation of caspase-3/7 at 50 ug/ml after 24 hrs by flow cytometry; assay type: functional, Canis lupus familiaris
[23] = system: CLBL-1; test: Induction of apoptosis in canine CLBL1 cells assessed as cleavage of PARP1 at 50 ug/ml after 24 hrs by Western blot analysis; assay type: functional, cell-based; conditions: Canis lupus familiaris
[24] = system: Jurkat; test: Cytotoxic activity against human Jurkat cells assessed as cell death at 50 ug/ml after 24 hrs by propidium iodide staining-based FACS analysis; assay type: functional
[25] = Induction of apoptosis in canine GL1 cells assessed as activation of caspase-3/7 at 50 ug/ml after 24 hrs by flow cytometry; assay type: functional, Canis lupus familiaris
[26] = system: CLB70; test: Cytotoxic activity against canine CLB70 cells assessed as cell death after 24 hrs by propidium iodide staining-based FACS analysis; assay type: functional; conditions: Canis lupus familiaris
[27] = system: Jurkat; test: Induction of apoptosis in human Jurkat cells assessed as cleavage of Bid at 25 to 50 ug/ml after 24 hrs by Western blot analysis; assay type: functional, cell-based
[28] = system: CLBL-1; test: Induction of apoptosis in canine CLBL1 cells assessed as downregulation of Bcl-2 expression at 25 to 50 ug/ml after 24 hrs by Western blot analysis; assay type: functional, cell-based; conditions: Canis lupus familiaris
[29] = system: CLB70; test: Induction of apoptosis in canine CLB70 cells assessed as downregulation of Bcl-2 expression at 25 to 50 ug/ml after 24 hrs by Western blot analysis; assay type: functional, cell-based; conditions: Canis lupus familiaris
[30] = system: Jurkat; test: Induction of apoptosis in human Jurkat cells at 50 ug/ml after 24 hrs by Annexin V/FITC staining based FACS analysis; assay type: functional, cell-based
[31] = system: CLB70; test: Cytotoxic activity against canine CLB70 cells assessed as cell death at 50 ug/ml after 24 hrs by propidium iodide staining-based FACS analysis; assay type: functional, Canis lupus familiaris
[32] = system: Jurkat; test: Induction of apoptosis in human Jurkat cells assessed as cleavage of PARP1 at 25 to 50 ug/ml after 24 hrs by Western blot analysis; assay type: functional, cell-based
[33] = system: CLB70; test: Induction of apoptosis in canine CLB70 cells assessed as activation of caspase-3/7 at 50 ug/ml after 24 hrs by flow cytometry; assay type: functional, Canis lupus familiaris
[34] = organism: Canis lupus familiaris; test: Induction of apoptosis in canine GL1 cells assessed as downregulation of Bcl-xl expression at 25 ug/ml after 24 hrs by Western blot analysis; assay type: functional, cell-based
[35] = system: CLB70; test: Induction of apoptosis in canine CLB70 cells assessed as downregulation of Bcl-xl expression at 50 ug/ml after 24 hrs by Western blot analysis; assay type: functional, cell-based; conditions: Canis lupus familiaris
[36] = system: CLB70; test: Induction of apoptosis in canine CLB70 cells assessed as downregulation of Bcl-2 expression at 50 ug/ml after 24 hrs by Western blot analysis; assay type: functional, cell-based; conditions: Canis lupus familiaris
[37] = organism: Canis lupus familiaris; test: Induction of apoptosis in canine GL1 cells assessed as downregulation of Bcl-2 expression at 50 ug/ml after 24 hrs by Western blot analysis; assay type: functional, cell-based
[38] = system: CLB70; test: Induction of apoptosis in canine CLB70 cells assessed as cleavage of Bid at 25 to 50 ug/ml after 24 hrs by Western blot analysis; assay type: functional, cell-based; conditions: Canis lupus familiaris
[39] = system: Jurkat; test: Induction of apoptosis in human Jurkat cells assessed as downregulation of Bcl-xl expression at 25 ug/ml after 24 hrs by Western blot analysis; assay type: functional, cell-based
[40] = system: CLBL-1; test: Induction of apoptosis in canine CLBL1 cells assessed as downregulation of Bcl-2 expression at 50 ug/ml after 24 hrs by Western blot analysis; assay type: functional, cell-based; conditions: Canis lupus familiaris
[41] = system: Jurkat; test: Induction of apoptosis in human Jurkat cells assessed as downregulation of Bcl-xl expression at 50 ug/ml after 24 hrs by Western blot analysis; assay type: functional, cell-based
[42] = system: CLBL-1; test: Induction of apoptosis in canine CLBL1 cells assessed as downregulation of Bcl-xl expression at 50 ug/ml after 24 hrs by Western blot analysis; assay type: functional, cell-based; conditions: Canis lupus familiaris
[43] = system: Jurkat; test: Induction of apoptosis in human Jurkat cells assessed as downregulation of Bcl-2 expression at 50 ug/ml after 24 hrs by Western blot analysis; assay type: functional, cell-based
[44] = organism: Canis lupus familiaris; test: Induction of apoptosis in canine GL1 cells assessed as cleavage of Bid at 25 to 50 ug/ml after 24 hrs by Western blot analysis; assay type: functional, cell-based
[45] = organism: Canis lupus familiaris; test: Induction of apoptosis in canine GL1 cells assessed as downregulation of Bcl-xl expression at 50 ug/ml after 24 hrs by Western blot analysis; assay type: functional, cell-based

Row | Structure (SMILES) | Activity [2] | Activity [3] | Activity [4] | Activity [6] | Activity [7] | Activity [8] | Activity [12] | Activity [13] | Activity [14] | Activity [15] | Activity [16] | Activity [19] | Activity [20] | Activity [21] | Activity [22] | Activity [23] | Activity [24] | Activity [25] | Activity [26] | Activity [27] | also measured
1 | Cc1ccc(C)c([C@@H]2CC(=O)O[C@H]2[C@H](C)I)c1 | Active | Active | inactive | Dose-dependent effect | Dose-dependent effect | 32.35% | inactive | Active | 80% | inactive | inactive | 25% | Dose-dependent effect | Active | 73.53% | Active | 25% | 20.35% | Dose-dependent effect | inactive | Activity [1]: Active; Activity [5]: inactive; Activity [9]: Active; Activity [10]: Active; Activity [11]: Active; Activity [17]: Active; Activity [18]: Active; Activity [28]: inactive; Activity [29]: Active; Activity [30]: Active; Activity [31]: 25%; Activity [32]: Active; Activity [33]: 30.04%
2 | Cc1ccc(C)c([C@H]2CC(=O)O[C@@H]2[C@@H](C)I)c1 | Active | Active | inactive | Dose-dependent effect | Dose-dependent effect | 66.93% | inactive | Active | 80% | inactive | inactive | 60% | Dose-dependent effect | Active | 78.89% | Active | 60% | 58.47% | Dose-dependent effect | inactive | Activity [34]: inactive; Activity [35]: Active; Activity [36]: Active; Activity [37]: Active; Activity [38]: Active; Activity [39]: inactive; Activity [40]: inactive; Activity [41]: Active; Activity [42]: inactive; Activity [43]: Active; Activity [44]: Active; Activity [30]: Active; Activity [31]: 60%; Activity [32]: Active; Activity [45]: Active; Activity [33]: 55.8%
